# According to US10183039B2, “Methods for the production of collagen IV” (Vanderbilt University, priority 2013, dated 2019):
# What was measured:
# [1] = increased salt concentrations (Fairbanks and Burch, 1970); cited from earlier work
# [2] = target: T1, peroxidasin (Mus musculus, UniProt Q3UQ28); test: In vitro basement membrane (uncrosslinked PFHR-9 matrix) reaction with halides and H2O2; type: biochemical
# T1 construct: Cultured murine PFHR9 cells synthesize collagen IV networks that contain sulfilimine crosslinks due to the activity of PXDN; endogenous in cells; host or cells: PFHR-9 cells (isolated matrix from KI-treated culture)
# T1 sequence (Q3UQ28 24-1475): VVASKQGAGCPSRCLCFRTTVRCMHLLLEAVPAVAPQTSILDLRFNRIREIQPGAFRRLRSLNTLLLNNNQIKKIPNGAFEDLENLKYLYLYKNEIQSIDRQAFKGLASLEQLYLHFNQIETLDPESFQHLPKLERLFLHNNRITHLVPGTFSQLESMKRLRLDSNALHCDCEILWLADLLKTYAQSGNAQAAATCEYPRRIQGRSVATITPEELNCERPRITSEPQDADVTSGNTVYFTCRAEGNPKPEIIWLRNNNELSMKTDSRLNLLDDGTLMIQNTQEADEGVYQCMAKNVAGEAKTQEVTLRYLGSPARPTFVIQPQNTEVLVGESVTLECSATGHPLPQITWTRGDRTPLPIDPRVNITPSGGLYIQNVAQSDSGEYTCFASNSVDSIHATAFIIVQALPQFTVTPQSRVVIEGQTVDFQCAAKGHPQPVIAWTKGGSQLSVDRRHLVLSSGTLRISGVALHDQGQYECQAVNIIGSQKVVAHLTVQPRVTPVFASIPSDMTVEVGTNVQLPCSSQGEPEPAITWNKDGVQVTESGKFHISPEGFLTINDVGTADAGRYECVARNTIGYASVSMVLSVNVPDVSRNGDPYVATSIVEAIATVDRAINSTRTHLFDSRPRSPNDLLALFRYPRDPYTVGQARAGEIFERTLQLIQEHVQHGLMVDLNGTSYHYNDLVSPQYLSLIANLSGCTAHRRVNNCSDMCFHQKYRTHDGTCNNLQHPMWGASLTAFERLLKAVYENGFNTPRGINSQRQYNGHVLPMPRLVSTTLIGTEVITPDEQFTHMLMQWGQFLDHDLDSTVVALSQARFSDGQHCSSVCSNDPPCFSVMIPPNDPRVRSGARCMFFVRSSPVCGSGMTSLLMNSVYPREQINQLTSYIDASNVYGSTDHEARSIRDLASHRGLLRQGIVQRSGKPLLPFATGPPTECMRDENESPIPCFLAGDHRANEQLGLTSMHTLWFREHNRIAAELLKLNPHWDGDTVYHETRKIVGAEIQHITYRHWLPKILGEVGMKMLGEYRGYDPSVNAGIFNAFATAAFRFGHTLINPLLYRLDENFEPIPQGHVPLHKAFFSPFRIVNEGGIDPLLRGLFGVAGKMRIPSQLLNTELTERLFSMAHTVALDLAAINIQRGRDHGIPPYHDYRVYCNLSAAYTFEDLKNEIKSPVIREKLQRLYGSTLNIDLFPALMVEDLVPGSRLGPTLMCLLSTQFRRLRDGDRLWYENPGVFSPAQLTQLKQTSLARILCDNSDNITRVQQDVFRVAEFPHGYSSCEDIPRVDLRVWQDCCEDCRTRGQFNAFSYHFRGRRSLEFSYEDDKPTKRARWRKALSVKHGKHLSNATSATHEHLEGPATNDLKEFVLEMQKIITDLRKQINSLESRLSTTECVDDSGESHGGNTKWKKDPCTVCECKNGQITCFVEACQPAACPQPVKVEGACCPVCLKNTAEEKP
# Description: (FIG. 8A) Matrix pellets isolated from KI-treated PFHR9 cell culture were extensively washed into 10 mM phosphate buffer (pH 7.4) supplemented with 100 mM KF to maintain ionic strength. Potassium salts of Cl— or Br— were added in indicated amounts. 1 hr reactions at 37° C. were initiated by addition of H2O2 to 1 mM and stopped by freezing at −20° C. Coomassie blue-stained gels after collagenase digestion of the samples and SDS-PAGE (FIG. 8B) Schematic of Br-Free chloride salt purification apparatus and setup. […] Reagent KCl was commercially obtained and unaltered prior to analysis. 100 mM solutions were made with 18MΩ deionized water. (FIG. 8C) Coomassie blue stained gel of collagenase digested PFHR-9 matrix reaction assay. Reaction buffered contained 10 mM phosphate buffer (pH 7.4), 100 mM Br-Free or Commercially obtained reagent grade KCl, as well as 1 mM H2O2 and 200 μM PHG where appropriate. (FIG. 8D) SDS-PAGE and coomassie blue stain of hPXDN (27.25 nM) and NC1 domain (1.3 μM) reaction and subsequent densiometric quantitation of S═N bond formation stiochiometry in response to NaBr addition. hPXDN and PFHR-9 NC1 domain were prepared and purified as described (5), except with all buffers for all purification steps (dialysis, chromatography, gradient ultracentrifugation) made with Br-Free chloride salts. Reactions were run for 10 minutes at 37° C. with 10 μM H2O2 as the terminal oxidant. Dose-response curve run in the presence of 1× Br-Free PBS. Reactions were quenched with 0.2 mg/ml Catalase, 20 mM Methionine, and 1 mM PHG. EC50 value±95% C.I. from two independent experiments with each data point plotted and fit.
# Uncrosslinked PFHR9 matrix was extensively washed into 10 mM phosphate buffer (pH 7.4) that was supplemented with 100 mM KF to maintain ionic strength. One hour reactions at 37° C. were initiated by addition of H2O2 to 1 mM and stopped by freezing at −20° C. […] Samples were digested with collagenase at 37° C. overnight and visualized by SDS-PAGE using 12% gels under non-reducing conditions with Coomassie staining.
# PFHR-9 cells treated with potassium iodide (1-10 mM) to eliminate NC1 hexamer crosslinks were used for basement membrane isolation. To test halide dependency, the inventors established halide-free conditions by washing extensively (at least five times) with 10 mM sodium phosphate pH 7.4. To try to extract or inactivate endogenous basement membrane peroxidase activity, the inventors extracted the matrix preparation twice with 2M guanidine-Cl, 50 mM Tris-Cl pH 7.5 and 10 mM EDTA-Na pH 8 followed by extensive washing with 1×PBS. Basement membrane was resuspended in the desired buffer with or without cofactors and inhibitors to examine in vitro NC1 crosslinking under various conditions. Basement membranes were collagenase solubilized to delineate collagen IV NC1 sulfilimine crosslink formation with SDS-PAGE and Coomassie blue staining membrane was isolated, washed extensively and resuspended in 1×PBS. Azide (0-10 mM) and 1 mM H2O2 were added and allowed to react for 1 h at 37° C. The matrix was pelleted, washed extensively with 1×PBS and solubilized with 1×PBS plus 2% (w/v) SDS. Solubilized proteins were reacted with 100 μM Tris[(1-benzyl-1H-1,2,3-triazol-4-yl)methyl]amine (Anaspec), 1 mM Tris(2-carboxyethyl)phosphine hydrochloride (ThermoFisher Pierce), 1 mM cupric sulfate and 100 μM biotin alkyne (PEG4 carboxamide-propargyl biotin; Life Technologies) for 1 h at 37° C. Click chemistry reactions were quenched with 1 mM 3′-azido-3′-deoxythymidine (Sigma). For avidin-HRP detection, samples were electrophoresed under reducing conditions, transferred to nitrocellulose membranes and probed with streptavidin-HRP according to manufacturer instructions (ThermoFisher Pierce). To isolate biotinylated proteins, the inventors precipitated click reaction products with two volumes of cold acetone to remove reactants, washed them with 70% (v/v) acetone and then resolubilized them in 1×PBS plus 2% SDS.
structure (smiles),measurement,setting,value
Cl [chloride],half-life in the fly,[1],~5 h
same,halide concentration permitting enzymatic crosslinking within purified matrix,[2],100 mM
same,S═N bond formation in isolated matrix,"[2]; 10 mM phosphate pH 7.4, 100 mM KF, 1 mM H2O2, 1 h at 37° C.",remained inactive until 100 mM
same,dimer formation with bromide-free chloride as halide source,"[2]; 100 mM Br-free chloride salt, 1 mM H2O2, isolated PFHR-9 matrix",insufficient for the reaction
same,halide concentration at which crosslinked dimeric subunits formed,[2]; H2O2 added to uncrosslinked basement membrane without other halides (FIG. 3B),~100 mM
